{
  "source": "ChEMBL document CHEMBL5385903",
  "about": "“The activity and mechanism of vidofludimus as a potent enzyme inhibitor against NDM-1-positive E. coli” (Eur J Med Chem, 2023)",
  "key": {"[1]": {"biological_target": "Metallo-beta-lactamase type 2 (Bacteria, UniProt C7C422)", "assay": "Inhibition of Metallo-beta-lactamase NDM-1 (unknown origin) using nitrocefin as substrate incubated for 5 to 10 mins by spectramax reader analysis"}, "Escherichia coli [2]": {"tested_on": "Escherichia coli", "assay": "Antibacterial activity against NDM-1 producing Escherichia coli assessed as inhibition of bacterial growth incubated overnight by broth microdilution assay", "type": "functional"}, "Escherichia coli [3]": {"tested_on": "Escherichia coli", "assay": "Antibacterial activity against NDM-1 producing Escherichia coli assessed as inhibition of bacterial growth at 4 ug/ml incubated for 5 hrs by time-kill assay", "type": "functional, organism-based", "details": "dose 4.0 µg/ml"}, "Escherichia coli [4]": {"tested_on": "Escherichia coli", "assay": "Antibacterial activity in NDM-1 producing Escherichia coli infected in BALB/c mouse assessed as increase in animal survival rate at 10 mg/kg,SC administrated upto 120 hrs for every 12 hrs interval", "type": "functional"}, "Escherichia coli [5]": {"tested_on": "Escherichia coli", "assay": "Antibacterial activity in NDM-1 producing Escherichia coli infected in BALB/c mouse assessed as reduction of bacterial burden in liver at 10 mg/kg,SC administration measured after 96 hrs of post-infection", "type": "functional, organism-based"}, "Escherichia coli [6]": {"tested_on": "Escherichia coli", "assay": "Antibacterial activity in NDM-1 producing Escherichia coli infected in BALB/c mouse assessed as reduction of bacterial burden in spleen at 10 mg/kg,SC administration measured after 96 hrs of post-infection", "type": "functional, organism-based"}, "Escherichia coli [7]": {"tested_on": "Escherichia coli", "assay": "Antibacterial activity in NDM-1 producing Escherichia coli infected in BALB/c mouse assessed as reduction of bacterial burden in small intestine at 10 mg/kg,SC administration measured after 96 hrs of post-infection", "type": "functional, organism-based"}, "Escherichia coli [8]": {"tested_on": "Escherichia coli", "assay": "Antibacterial activity in NDM-1 producing Escherichia coli infected in BALB/c mouse assessed as decrease in pathological damage in liver at 10 mg/kg,SC administration measured after 96 hrs of post-infection by hematoxylin and eosin staining based assay", "type": "functional, organism-based"}, "Escherichia coli [9]": {"tested_on": "Escherichia coli", "assay": "Antibacterial activity in NDM-1 producing Escherichia coli infected in BALB/c mouse assessed as decrease in pathological damage in spleen at 10 mg/kg,SC administration measured after 96 hrs of post-infection by hematoxylin and eosin staining based assay", "type": "functional, organism-based"}, "Escherichia coli [10]": {"tested_on": "Escherichia coli", "assay": "Antibacterial activity in NDM-1 producing Escherichia coli infected in BALB/c mouse assessed as decrease in pathological damage in small intestine at 10 mg/kg,SC administration measured after 96 hrs of post-infection by hematoxylin and eosin staining based assay", "type": "functional, organism-based"}, "Escherichia coli [11]": {"tested_on": "Escherichia coli", "assay": "Synergistic antibacterial activity against NDM-1 producing Escherichia coli assessed as inhibition of bacterial growth incubated overnight in presence of meropenem by broth microdilution assay", "type": "functional"}, "Escherichia coli [12]": {"tested_on": "Escherichia coli", "assay": "Synergistic antibacterial activity against NDM-1 producing Escherichia coli assessed as inhibition of bacterial growth by measuring meropenem MIC incubated overnight in presence of meropenem by broth microdilution assay", "type": "functional"}, "Escherichia coli [13]": {"tested_on": "Escherichia coli", "assay": "Synergistic antibacterial activity against NDM-1 producing Escherichia coli assessed as fractional inhibitory concentration index in presence of meropenem by checkerboard broth microdilution assay", "type": "functional"}, "Beta-lactamase NDM-1 [14]": {"biological_target": "T1, Beta-lactamase NDM-1 (Escherichia coli, UniProt E5KIY2)", "assay": "Inhibition of Escherichia coli NDM-1 expressed in Escherichia coli BL21 (DE3) using nitrocefin as substrate by microplate reader analysis"}, "[15]": {"biological_target": "Beta-lactamase NDM-1 (Escherichia coli) (UniProt E5KIY2)", "assay": "Inhibition of Escherichia coli NDM-1 expressed in Escherichia coli BL21 (DE3) using nitrocefin as substrate at 10 ug/ml by microplate reader analysis relative to control", "details": "dose 10.0 µg/ml"}, "Escherichia coli [16]": {"tested_on": "Escherichia coli", "assay": "Antibacterial activity against NDM-1 producing Escherichia coli assessed as inhibition of bacterial growth at 2 to 512 ug/ml incubated overnight by broth microdilution assay", "type": "functional, organism-based", "details": "dose 2-512 µg/ml"}, "Escherichia coli [17]": {"tested_on": "Escherichia coli", "assay": "Antibacterial activity against NDM-1 producing Escherichia coli assessed as inhibition of bacterial growth at 64 ug/ml incubated for 5 hrs by time-kill assay", "type": "functional, organism-based", "details": "dose 64.0 µg/ml"}, "Escherichia coli [18]": {"tested_on": "Escherichia coli", "assay": "Antibacterial activity in NDM-1 producing Escherichia coli infected in BALB/c mouse assessed as increase in animal survival rate at 10 mg/kg,IG administrated upto 120 hrs for every 12 hrs interval", "type": "functional", "details": "po"}, "Escherichia coli [19]": {"tested_on": "Escherichia coli", "assay": "Synergistic antibacterial activity in NDM-1 producing Escherichia coli infected in BALB/c mouse assessed as increase in animal survival rate at 10 mg/kg,IG administrated with meropenem by subcutaneous injection upto 120 hrs for every 12 hrs interval", "type": "functional"}, "Escherichia coli [20]": {"tested_on": "Escherichia coli", "assay": "Antibacterial activity in NDM-1 producing Escherichia coli infected in BALB/c mouse assessed as effect on white blood cell count at 10 mg/kg,IG administration measured after 96 hrs of post-infection", "type": "functional, organism-based"}, "Escherichia coli [21]": {"tested_on": "Escherichia coli", "assay": "Antibacterial activity in NDM-1 producing Escherichia coli infected in BALB/c mouse assessed as decrease in TNF-alpha level at 10 mg/kg,IG administration measured after 96 hrs of post-infection by ELISA", "type": "functional, organism-based"}, "Escherichia coli [22]": {"tested_on": "Escherichia coli", "assay": "Antibacterial activity in NDM-1 producing Escherichia coli infected in BALB/c mouse assessed as decrease in IL-1beta level at 10 mg/kg,IG administration measured after 96 hrs of post-infection by ELISA", "type": "functional, organism-based"}, "Escherichia coli [23]": {"tested_on": "Escherichia coli", "assay": "Antibacterial activity in NDM-1 producing Escherichia coli infected in BALB/c mouse assessed as decrease in IFN-gamma level at 10 mg/kg,IG administration measured after 96 hrs of post-infection by ELISA", "type": "functional, organism-based"}, "Escherichia coli [24]": {"tested_on": "Escherichia coli", "assay": "Antibacterial activity in NDM-1 producing Escherichia coli infected in BALB/c mouse assessed as decrease in pathological damage in liver at 10 mg/kg,IG administration measured after 96 hrs of post-infection by hematoxylin and eosin staining based assay", "type": "functional, organism-based"}, "Escherichia coli [25]": {"tested_on": "Escherichia coli", "assay": "Antibacterial activity in NDM-1 producing Escherichia coli infected in BALB/c mouse assessed as decrease in pathological damage in spleen at 10 mg/kg,IG administration measured after 96 hrs of post-infection by hematoxylin and eosin staining based assay", "type": "functional, organism-based"}, "Escherichia coli [26]": {"tested_on": "Escherichia coli", "assay": "Antibacterial activity in NDM-1 producing Escherichia coli infected in BALB/c mouse assessed as decrease in pathological damage in small intestine at 10 mg/kg,IG administration measured after 96 hrs of post-infection by hematoxylin and eosin staining based assay", "type": "functional, organism-based"}, "[27]": {"biological_target": "Beta-lactamase NDM-1 (Escherichia coli) (UniProt E5KIY2)", "assay": "Inhibition of Escherichia coli NDM-1 assessed as effect on NDM-1 protein expression at 64 ug/ml incubated for 12 hrs by Western blotting analysis", "details": "dose 64.0 µg/ml"}, "[28]": {"biological_target": "Beta-lactamase NDM-1 (Escherichia coli) (UniProt E5KIY2)", "assay": "Binding affinity to Escherichia coli NDM-1 assessed as melting temperature at 64 ug/ml incubated for 18 hrs by CD spectroscopy", "details": "dose 64.0 µg/ml"}, "[29]": {"biological_target": "Beta-lactamase NDM-1 (Escherichia coli) (UniProt E5KIY2)", "assay": "Inhibition of Escherichia coli recombinant wild type NDM-1 expressed in Escherichia coli BL21 (DE3) incubated for 10 mins"}, "[30]": {"biological_target": "Beta-lactamase NDM-1 (Escherichia coli) (UniProt E5KIY2)", "assay": "Inhibition of Escherichia coli recombinant wild type NDM-1 expressed in Escherichia coli BL21 (DE3) at 4 to 128 ug/ml incubated for 10 mins relative to control", "details": "dose 4-128 µg/ml"}, "[31]": {"tested_on": "Beta-lactamase NDM-1 (Escherichia coli), E5KIY2 [UNDEFINED MUTATION]", "assay": "Inhibition of Escherichia coli recombinant NDM-1 mutant expressed in Escherichia coli BL21 (DE3) at 4 to 128 ug/ml incubated for 10 mins", "details": "dose 4-128 µg/ml"}, "Beta-lactamase NDM-1 [32]": {"biological_target": "T1, Beta-lactamase NDM-1", "assay": "Binding affinity to Escherichia coli NDM-1 assessed as equilibrium dissociation constant measured for 60 sec by bio-layer interferometry analysis"}, "[33]": {"biological_target": "Beta-lactamase NDM-1 (Escherichia coli) (UniProt E5KIY2)", "assay": "Binding affinity to Escherichia coli NDM-1 by bio-layer interferometry analysis"}},
  "note": "The source made the active and inactive calls. No cut-off for these calls is given here.",
  "data": [
    {"smiles": "N[C@@H](CN[C@@H](CN[C@@H](CC(=O)O)C(=O)O)C(=O)O)C(=O)O", "values": [
      {"measurement": "IC50", "setting": "[1]", "result": 4.1, "unit": "µM"}
    ]},
    {"smiles": "C[C@@H](O)[C@H]1C(=O)N2C(C(=O)O)=C(S[C@@H]3CN[C@H](C(=O)N(C)C)C3)[C@H](C)[C@H]12", "note": "[MEROPENEM]", "values": [
      {"measurement": "MIC", "setting": "Escherichia coli [2]", "result": 64, "unit": "µg/mL"},
      {"measurement": "Activity", "setting": "Escherichia coli [3]", "result": "inactive"},
      {"measurement": "survival at 10 mg/kg", "setting": "Escherichia coli [4]", "result": 40, "unit": "%"},
      {"measurement": "Activity", "setting": "Escherichia coli [5]", "result": "Active"},
      {"measurement": "Activity", "setting": "Escherichia coli [6]", "result": "Active"},
      {"measurement": "Activity", "setting": "Escherichia coli [7]", "result": "Active"},
      {"measurement": "Activity", "setting": "Escherichia coli [8]", "result": "Active"},
      {"measurement": "Activity", "setting": "Escherichia coli [9]", "result": "Active"},
      {"measurement": "Activity", "setting": "Escherichia coli [10]", "result": "Active"}
    ]},
    {"smiles": "COc1cccc(-c2ccc(NC(=O)C3=C(C(=O)O)CCC3)c(F)c2)c1", "note": "[VIDOFLUDIMUS]", "values": [
      {"measurement": "MIC", "setting": "Escherichia coli [2]", "result": 1020, "unit": "µg/mL"},
      {"measurement": "MIC", "setting": "Escherichia coli [11]", "result": 64, "unit": "µg/mL"},
      {"measurement": "MIC", "setting": "Escherichia coli [12]", "result": 4, "unit": "µg/mL"},
      {"measurement": "fractional inhibitory concentration index (FICI)", "setting": "Escherichia coli [13]", "result": 0.125},
      {"measurement": "IC50", "setting": "Beta-lactamase NDM-1 [14]", "result": 13.8, "unit": "µM"},
      {"measurement": "inhibition", "setting": "[15]", "result": 93.3, "unit": "%"},
      {"measurement": "Activity", "setting": "Escherichia coli [16]", "result": "inactive"},
      {"measurement": "Activity", "setting": "Escherichia coli [17]", "result": "inactive"},
      {"measurement": "survival at 10 mg/kg", "setting": "Escherichia coli [18]", "result": 10, "unit": "%"},
      {"measurement": "survival at 10 mg/kg", "setting": "Escherichia coli [19]", "result": 90, "unit": "%"},
      {"measurement": "Activity", "setting": "Escherichia coli [20]", "result": "inactive"},
      {"measurement": "Activity", "setting": "Escherichia coli [21]", "result": "inactive"},
      {"measurement": "Activity", "setting": "Escherichia coli [22]", "result": "inactive"},
      {"measurement": "Activity", "setting": "Escherichia coli [23]", "result": "inactive"},
      {"measurement": "Activity", "setting": "Escherichia coli [24]", "result": "inactive"},
      {"measurement": "Activity", "setting": "Escherichia coli [25]", "result": "inactive"},
      {"measurement": "Activity", "setting": "Escherichia coli [26]", "result": "inactive"},
      {"measurement": "inhibition", "setting": "[27]", "result": "inactive"},
      {"measurement": "Tm", "setting": "[28]", "result": 58, "unit": "°C"},
      {"measurement": "inhibition", "setting": "[29]", "result": "Dose-Dependent Effect"},
      {"measurement": "inhibition", "setting": "[30]", "result": 14.9, "unit": "%"},
      {"measurement": "inhibition", "setting": "[31]", "result": "inactive"},
      {"measurement": "Kd", "setting": "Beta-lactamase NDM-1 [32]", "result": 337, "unit": "nM"},
      {"measurement": "Activity", "setting": "[33]", "result": "Dose-Dependent Effect"}
    ]}
  ]
}
